Test system: S. epidermidis, C. xerosis, M. furfur, P. Acnes
Assay: Antimicrobial efficacy, challenge test, overall conclusion on the strains of table 1
Format: cell-based
Settings: conclusion from table 1; almost comparable to Phenonip
Method: The antimicrobial efficacy of propanediol monoacetate mononitrate (PDMAMN) is assessed in analogy to the regulatory challenge test method (NF EN ISO11930). The following test solutions were tested • 1. Inv 1: 400 mg PDMAMN in 1 ml PEG 400 were diluted with 40 mL physiological serum (0.85% NaCl) containing 7% Ethanol (˜1% of PDMAMN) • 2. Inv 2: 200 mg PDMAMN in 1 ml PEG 400 were diluted in 40 mL physiological serum (0.85% NaCl) containing 7% Ethanol (˜0.5% of PDMAMN) • 3. Inv 3: 40 mg 3-PDMAMN in 1 ml PEG 400 were diluted in 40 mL physiological serum (0.85% NaCl) containing 7% Ethanol (˜0.1% of PDMAMN) • 4. Ref 1: Physiological serum (0.85% NaCl) • 5. Ref 2: 1 mL PEG 400+40 mL physiological serum (0.85% NaCl) containing 7% Ethanol • 6. Control: 0.5% Phenonip in physiological serum (0.85% NaCl)
All test solutions were deposed in 96-deep well plates (1.6 ml/well). The wells were contaminated with the respective bacterial or the fungal strains as outlined in table 1*10^5 to 1*10^6 cfu/ml for the bacteria and 1*10^4 to 1*10^5 cfu/ml for the fungi to obtain the initial contamination as outlined in table 1, Zero. After the contamination, each well was thoroughly mixed to ensure a homogeneous distribution of the microorganism. Then each plate was incubated at 22° C. for 24 h. The counting of the (remaining) population was carried out 24 h after contamination.

CC(=O)OCCCO[N+](=O)[O-] [propanediol monoacetate mononitrate, 1,3-propanediol monoacetate mononitrate]
antimicrobial activity: excellent antimicrobial activity
